Data on 15 compounds can be found in EP0562849A2, “Steroid derivatives” (priority 1992, dated 1993).

The test system of one assay is Syrian Golden hamsters. The experiment in a line: In vivo serum cholesterol lowering in hamsters fed a cholesterol test diet. The conditions noted are these: for inhibition in vivo at 100 mg/kg/day: Mesocricetus auratus, feed or water, 168 h, read-out: Percent Lowering of Cholesterol from Control Value Mean; for Serum Cholesterol Mean: 0.2% (w/w) in Cholesterol Test Diet for one week, equivalent to 100 mg/kg/day, groups of six, control mean 337. As to the method:
Syrian Golden hamsters were fed a cholesterol test diet made of 10% coconut oil and 0.12% cholesterol (by weight) in Purina 5001 Rodent Chow to induce hypercholesteriolemia.
After two weeks on the cholesterol test diet the hamsters were bled from the orbital sinium under light CO2 anesthesia. Serum was prepared and analyzed for cholesterol using a commercial test kit (Cholesterol High Performance, Single Vial™, product of Boehringer Mannheim Corp., Indianapolis, IN, USA). The hamsters were separated into groups of six animals, such that each group had approximately the same mean serum cholesterol levels. Selected compounds of the invention were incorporated into the Cholesterol Test Diet at 0.2% (w/w) and fed to the hamsters for one week. A control group of hamsters continued on the Cholesterol Test Diet during the same one-week period. The dose of test compounds of the invention was equivalent to 100 mg/kg/day based on the weight of the hamsters and their diet consumption. Upon completion of the test period, the animals were bled and serum cholesterol determined as above.
Mean serum cholesterol values from the test hamsters were compared to values from the control group and tested for significance at the Z.05 level using Dunnett's test.

In assay [1] the test system is human LDL receptor promoter. The experiment in a line: in vitro Luciferase Activity Test (LDL receptor promoter-luciferase reporter in recombinant CHO cells). Type of assay: cell-based. On the set-up: MED: unit not given here. The conditions noted are these: for Emax: Homo sapiens, CHO, read-out: MA%; for Emax / MA%: maximum activity (%) over control; for MED: minimum effective dose (molar concentration, unit not given), 24 hr, assay medium with 0.5 µg/ml 25-hydroxycholesterol; for RED: relative effective dose compared to compound of Example 4, below one = more active. As to the method: A 1546 base pair sequence of the human LDL receptor promoter was amplified using the polymerase chain reaction. A reaction mixture containing 20 pMoles each of the synthetic oligonucleotides 5'-[…]-3' (Seq. I.D. No: 1) and 5'-AAG-[…]-3', (Seq. I.D. No:2) 1 µg human genomic DNA purified from the adenocarcinoma cell line P3UCLA, 200 µM each of dATP, dGTP, dCTP, and TTP, 2.5 units of Taq DNA polymerase, 10mM Tris-HCI pH 8.3, 50 mM KCI, […], 0.1% gelatin in a final volume of 100 µl was subjected to 30 cycles of 15 sec at 96°C, 30 sec at 55°C, and 1 min at 72°C. The material was subject to gel electrophoresis on a 1% agarose gel and the 1546 base pair band was isolated and restriction enzyme digested with Hind III and Nde I. This fragment was ligated into the plasmid pSP72 (ProMega Biotech), which had previously been restriction enzyme nuclease digested with Hind III and Nde I. The resulting vector, pNLDLRP, was restriction endonulease digested with Ndel and Hind III and the material was again run on a 1% agarose gel to reisolate the 1546 bp LDL receptor sequence.
Plasmid vector PSv2 was constructed by digesting plasmid pSv2-globin with Hind III and Bgl II then ligating an Nrul-Xhol linker into the vector. Plasmid pSv2 globin is disclosed in U.S. Patent No. 4,775,624, the entire teaching of which is herein incorporated by reference. The linker contained the following sequences: [formula] (Seq. I.D. No: 3), and [formula] ' (Seq. I.D. No:4).
The resulting vector was designated pSv2-H NXB because it contained a […], an Nrul site, an Xhol site and a Bgl site. The Hind III-Bgl II fragment of plasmid pAlc4(NRRL B-18783), which contains the firefly luciferase gene, was then ligated into the Hin III-Bgl site of plasmid pSv2-HNXB. A neomycin resistance-conforming gene was then ligated into the Bam HI site of the resultant plasmid to form plasmid pSv2.
A 1546 base pair fragment was isolated and cloned into a Ndel and Hind III (partial) restriction digested vector pSv2 containing the firefly luciferase reporter gene and a gene for neomycin resistance. The resulting vector, pLDL-Luc1 Neo-10, contains the human LDL receptor promoter driving expression of the firefly luciferase gene, a gene coding for neomycin resistance, ampicillin resistant marker and an origin of replication.
Plasmid pLDL-Luc 1 Neo-10 was used to stably transfect Chinese Hamster Ovary cells using a Lipofection Reagent kit and procedure from Gibco BRL Research Products Division Life Technologies Inc. Transformants were selected by picking individual colonies grown in Dulbecco's modified Eagle's medium supplimented with 10% fetal bovine serum and containing 500 µg per ml […]. […] Clone S27/B30 was used for subsequent screening.
In developing a cell based screen it is important to have a negative control. The viral SV40 promoter is ideal for this purpose in that it has a number of SP1 elements that enhance gene transcription. These elements are not under the control of end product repression; but they do have a high degree of sequence homology with the 16 base pair long sterol response element found in the LDL receptor promoter. The SV40 promoter should therefore be a sensitive mechanism to screen out agents that induce nonspecific transcription.
Chinese Hamster Ovary cells were stably cotransfected with a vector pSV2AL-A 5' containing the SV40 promoter driving expression of the firefly luciferase gene and a second vector pSV2 NeoBam containing a neomycin resistant marker. Transfections were carried out using the Lipofectin Reagent kit and procedure from Gibco BRL Research Products Division Life Technologies Inc. Transformants were selected by picking individual colonies grown in Dulbecco's modified Eagle's medium supplemented with 10% fetal bovine serum and containing 500 µg per ml of geneticin. Individual clones were selected, lysed and assayed for luciferase production. […]
In general terms: In a reporter assay the amount or activity of a reporter protein is the signal.

Where [2] appears, read: hamsters, 0.2% (w/w) in diet for one week (100 mg/kg/day), negative values = serum cholesterol increased relative to control.
The mark [3] stands for this setting: NA is not active, 30% luciferase activity cutoff point (footnote 1).
Where [4] appears, read: tests using 30% luciferase activity cutoff point (footnote 1).
Setting [5] is: 30% luciferase activity cutoff point (footnote 1).
Setting [6] is: 15% luciferase activity cutoff point (footnote 2).
The mark [7] stands for this setting: tests using 15% luciferase activity cutoff point (footnote 2).

Where “and” joins values, the source holds several entries; their conditions need not be identical. Equal values may be shown once. Read-outs that look alike come from different tables or passages of the source.

Turning to `CC(C)CCC[C@@H](C)[C@H]1CC[C@H]2[C@@H]3CC[C@H]4[C@H](CC=C(Br)Br)[C@H](O)CC[C@]4(C)[C@H]3CC[C@]12C` [(14), (3a,4a,5a)-4-(3,3-dibromo-2-propenyl)cholestan-3-ol], the inhibition in vivo at 100 mg/kg/day in the assay with Syrian Golden hamsters (setting [2]) was 23.2%. The “Serum Cholesterol Mean” value in the assay with Syrian Golden hamsters (hamsters) worked out at 259 mg/dL.

Consider `CC(C)CCC[C@@H](C)[C@H]1CC[C@H]2[C@@H]3CCC4[C@H](Cc5ccccc5)C(=O)CC[C@]4(C)[C@H]3CC[C@]12C` (some centres unmarked) [(19), 4a-benzylcholestan-3-one], for which, in the assay on Syrian Golden hamsters (hamsters), the “Serum Cholesterol Mean” value turned out to be 312 mg/dL. In the assay with Syrian Golden hamsters (setting [2]), the “Percent Lowering of Cholesterol from Control Value Mean” value (from here on “Percent Lowering of Cholesterol”) was 7.5%.

Regarding `C=CCC1C(=O)CC[C@@]2(C)C1CC[C@H]1[C@@H]3CC[C@H]([C@H](C)CCCC(C)C)[C@@]3(C)CC[C@@H]12` (some centres unmarked) [(21), 4-(2-propenyl)cholestan-3-one], the inhibition in vivo at 100 mg/kg/day in the assay on Syrian Golden hamsters (setting [2]) stood at 2%. In the assay with Syrian Golden hamsters (hamsters), the “Serum Cholesterol Mean” value came out at 330 mg/dL.

Consider `CC(C)CCC[C@@H](C)[C@H]1CC[C@H]2[C@@H]3CC[C@H]4C[C@H](O)CC[C@]4(C)[C@H]3CC[C@]12C` [(24), 5a-cholestan-3a-ol, reference compound], for which, in the assay with Syrian Golden hamsters, the inhibition in vivo at 100 mg/kg/day is -25%. In addition, the “Serum Cholesterol Mean” value with Syrian Golden hamsters (hamsters) stood at 422 mg/dL.

Regarding `C/C=C/C[C@@H]1[C@H](O)CC[C@@]2(C)[C@H]1CC[C@@H]1[C@@H]2CC[C@]2(C)[C@@H]([C@H](C)CCCC(C)C)CC[C@@H]12` [Example 4, [4a(E),5a]-4-(2-butenyl)cholestan-3a-ol], the Emax in assay [1] (setting [3]) turned out to be 80%. Besides, the MED in assay [1] (setting [4]) is recorded as 2.2. For the same compound, the RED in assay [1] (setting [5]) turned out to be 1.00. In addition, in the assay with Syrian Golden hamsters (setting [2]), the inhibition in vivo at 100 mg/kg/day worked out at 37.8%. Moreover, the “Serum Cholesterol Mean” value with Syrian Golden hamsters (hamsters) was 210 mg/dL.

Consider `CC(C)CCC[C@@H](C)[C@H]1CC[C@H]2[C@@H]3CCC4[C@H](Cc5ccc(F)cc5)[C@H](O)CC[C@]4(C)[C@H]3CC[C@]12C` (some centres unmarked) [Example 23, 4a-(4-fluorobenzyl)cholestan-3a-ol], for which, in assay [1] (setting [6]), the Emax came out at 49% and the MA% is listed as 37%. Moreover, in the assay on Syrian Golden hamsters (setting [2]), the inhibition in vivo at 100 mg/kg/day worked out at 46.3%. The “Serum Cholesterol Mean” value in the assay on Syrian Golden hamsters (hamsters) stood at 181 mg/dL.

On to `CC(C)CCC[C@@H](C)[C@H]1CC[C@H]2[C@@H]3CCC4[C@H](Cc5ccc(I)cc5)[C@H](O)CC[C@]4(C)[C@H]3CC[C@]12C` (some centres unmarked) [Example 25, 4a-(4-iodobenzyl)cholestan-3a-ol], for which the MA% in assay [1] (setting [6]) was 89% and 64% and 79%. Moreover, the inhibition in vivo at 100 mg/kg/day in the assay on Syrian Golden hamsters (setting [2]) stood at 28.8%. Besides, in the assay with Syrian Golden hamsters (hamsters), the “Serum Cholesterol Mean” value came to 240 mg/dL.

On to `CC(C)CCC[C@@H](C)[C@H]1CC[C@H]2[C@@H]3CCC4[C@H](Cc5ccc(OC(F)(F)F)cc5)[C@H](O)CC[C@]4(C)[C@H]3CC[C@]12C` (some centres unmarked) [Example 30, 4a-(4-trifluoromethoxybenzyl)cholestan-3a-ol], for which the Emax in assay [1] (setting [6]) came to 76%. Besides, in assay [1] (setting [3]), the MA% is 65% and 92%. Further, the MED was 8.9 in assay [1] (setting [7]); 17.3 and 8.9 in assay [1] (setting [4]). Also, the RED in assay [1] (setting [6]) stood at 3.2. Besides, the inhibition in vivo at 100 mg/kg/day in the assay with Syrian Golden hamsters (setting [2]) turned out to be 38%. Further, the “Serum Cholesterol Mean” value in the assay on Syrian Golden hamsters (hamsters) was determined as 209 mg/dL.

`CC(C)CCC[C@@H](C)[C@H]1CC[C@H]2[C@@H]3CCC4[C@H](Cc5ccc(O)cc5)[C@H](O)CC[C@]4(C)[C@H]3CC[C@]12C` (some centres unmarked) [Example 36, 4a-(4-hydroxybenzyl)cholestan-3a-ol]: in assay [1] (setting [6]), the Emax is 20% and the RED is 17.6. For the same compound, the MED in assay [1] (setting [7]) came to 40. For the same compound, the inhibition in vivo at 100 mg/kg/day in the assay on Syrian Golden hamsters (setting [2]) is 22.6%. Moreover, the “Serum Cholesterol Mean” value in the assay with Syrian Golden hamsters (hamsters) came out at 261 mg/dL.

With `C=CC[C@H]1C2CC[C@@H]3[C@H](CC[C@]4(C)C(OCCCC(C)C)CC[C@@H]34)[C@@]2(C)CC[C@H]1O` (stereo partly drawn) [Example 66, (3α,4α)-17-[(4-methylpentyl)oxy]-4-(2-propenyl)androstan-3-ol], the MA% in assay [1] (setting [3]) was 73% and 100% and 105% and 118%. The inhibition in vivo at 100 mg/kg/day in the assay on Syrian Golden hamsters (setting [2]) came to 30.7%. Besides, in the assay with Syrian Golden hamsters (hamsters), the “Serum Cholesterol Mean” value is 234 mg/dL.

Regarding `C=CC[C@H]1C2CC[C@@H]3[C@H](CC[C@]4(C)C(OCc5ccccc5)CC[C@@H]34)[C@@]2(C)CC[C@H]1O` (stereo partly drawn) [Example 68, (3α,4α)-17-(phenylmethoxy)-4-(2-propenyl)androstan-3-ol], in assay [1] (setting [3]), the Emax was determined as 42%; the MA% was 33% and 39%. Also, in the assay with Syrian Golden hamsters (setting [2]), the inhibition in vivo at 100 mg/kg/day came out at 8.6%. For the same compound, the “Serum Cholesterol Mean” value in the assay on Syrian Golden hamsters (hamsters) came out at 309 mg/dL.

In the case of `C=CC[C@@H]1C[C@@]2(C)[C@@H](CC[C@@H]3[C@@H]2CC[C@]2(C)[C@@H]([C@H](C)CCCC(C)C)CC[C@@H]32)C[C@@H]1O` [Example 77, (2a, 3a, 5a)-2-(2-propenyl)cholestan-3-ol], the Emax in assay [1] (setting [3]) worked out at 60%. In assay [1] (setting [4]), the MED is listed as 40.8. In addition, in assay [1] (setting [5]), the RED was determined as 4.6. Further, in the assay with Syrian Golden hamsters (setting [2]), the inhibition in vivo at 100 mg/kg/day amounted to 38%. Besides, in the assay with Syrian Golden hamsters (hamsters), the “Serum Cholesterol Mean” value was determined as 209 mg/dL.

On to `C=CC[C@@H]1[C@@H](O)CC[C@@]2(C)[C@H]1CC[C@@H]1[C@@H]2CC[C@]2(C)[C@@H]([C@H](C)CCCC(C)C)CC[C@@H]12` [Example 80, (3β,4α,5α,20β)-4-(2-propenyl)cholestan-3-ol], for which the inhibition in vivo at 100 mg/kg/day with Syrian Golden hamsters (setting [2]) is 20.2%. Also, the “Serum Cholesterol Mean” value with Syrian Golden hamsters (hamsters) came out at 269 mg/dL.

Take `C=CC[C@@H]1[C@H](OC(=O)CCCCCCCCCCCCCCCCC)CC[C@@]2(C)[C@H]1CC[C@@H]1[C@@H]2CC[C@]2(C)[C@@H]([C@H](C)CCCC(C)C)CC[C@@H]12` [Example 99, (3a,4a,5a)-4-(2-propenyl)cholestan-3-ol octadecanoate (ester)]: in the assay on Syrian Golden hamsters (hamsters), the “Serum Cholesterol Mean” value is given as 328 mg/dL. Moreover, the “Percent Lowering of Cholesterol” value with Syrian Golden hamsters (setting [2]) was 2.7%.

With “(3β,4α,5α,20β)-4-(2-propenyl)cholestan-3-amine [(22)]”, the “Serum Cholesterol Mean” value with Syrian Golden hamsters (hamsters) was 345 mg/dL. Also, the “Percent Lowering of Cholesterol” value with Syrian Golden hamsters (setting [2]) is reported as -2.4%.
